From article PMC10765884, “MC180295 is a highly potent and selective CDK9 inhibitor with preclinical in vitro and in vivo efficacy in cancer” (Clinical Epigenetics, 2024)
Entries after “also recorded” stand apart in the source; their conditions may differ. Like-named read-outs stand apart in the source and are kept apart here.

Key:
[1] = Rat hepatocyte stability assay; type: in vitro ADME; parameters: dose or concentration left out as unconfirmed; conditions: cryopreserved primary hepatocytes; Rat (Sprague-Dawley) hepatocytes, male
Description: CLint (μL/min/10^6 cells) estimates were determined using a modified method of […] et al.. Cryopreserved rat (Sprague-Dawley) primary hepatocytes (4 male donors) (Life Tech product RTCS10) were rapidly thawed, diluted with Hank's balanced salt solution at 37 °C and centrifuged for 5 min at 100 × g. Resuspended cells were stained with 0.016% trypan blue and counted. Cell viability was > 80%. 0.25 mL of a 1 × 10^6 viable cells/ml cell suspension was added to 16-mm diameter wells of an uncoated polystyrene plate. The prewarmed plate was placed in a 37 °C incubator with 5% CO2 atmosphere, with 100 oscillations/min shaking. After 5 min, 0.25 mL of 2 μM test compound, in prewarmed HBSS, was added per well and mixed to start the reactions, with duplicate reactions per compound. Verapamil was used as a positive control, and cell-free reactions served as negative controls. At each time point (0, 5, 15, 30, 60, 90, and 120 min), 50 μL aliquots were transferred to a 96-well stop plate containing 200 μL/well acetonitrile: water (85:15), with 0.1% formic acid and 0.1 μM propafenone. The plate was centrifuged for 10 min at 2300 × g. 150 μL of the supernatant was transferred to a mass spectrometry sample plate. Samples were analyzed by UPLC/MS, as described in the microsome stability protocol. Results are expressed as t1/2 (min) and in vitro CLint (μL/min/10^6 cells).

[2] = Drug toxicity: body weights and complete blood counts in tumor-bearing mice; type: in vivo
Description: For the s.c. SW48 model, 2 × 10^6 cells were injected into the flanks of randomly assigned, gender-matched 8–10-week-old NSG mice. 20 mg/kg MC180379, MC180380, or MC180295 was injected (i.p.), every other day, when the tumors were palpable, 11 days after engraftment, until endpoints were met. Mice were sacrificed before tumor volumes exceeded 400 mm^2 (endpoint for this model). For the s.c. HT29 model, 2 × 10^6 cells were injected into the flanks of randomly assigned, gender-matched, 8–10-week-old NSG mice. 20 mg/kg MC180379 or MC180380 was injected (i.p.), every other day, when the tumors were palpable, 12 days after engraftment, until endpoints were met. Mice were sacrificed before tumors volumes exceeded 400 mm^2 (used as the endpoint for this model). For the CT26.CL25 model, 5 × 10^5 cells were injected into the flanks of randomly assigned female 8–10-week-old B6 mice. 20 mg/kg MC180295 was injected (i.p.), every other day, when the tumors were palpable, 8 days after engraftment, until endpoints were met. 0.5 mg/kg DAC was injected (i.p.) daily until an endpoint was met. Mice were sacrificed when they developed serious tumoral ulcerations. CD8 + T cells were depleted using an anti-CD8 antibody (InVivoMAb anti-mouse CD8 (Lyt 2.1), BE0118) on days 4, 5, and 11 after inoculation. MC180295, MC180379, and MC180380 were dissolved in NMP (Fisher Scientific), Captisol® (20% w/v) (CyDex), PEG-400 (Millipore Sigma), and normal saline (PBS) (Corning), at a ratio of 1:4:4:11. NMP was added first, followed by Captisol and PEG-400. PBS was added last. DAC was dissolved in water. In a subset of the experiments, after mice were sacrificed, peripheral blood was collected, and complete blood counts were obtained using Abaxis VetScan HM5.

[3] = test system: MV4-11-luc cells; experiment: MV4-11-luc AML model in NSG mice; conditions: MV4-11-luc in NSG mice, 20 mg/kg i.p. q.o.d.; for survival: 20 mg/kg
[4] = Liver microsome stability assay; type: in vitro ADME, dog; conditions: pooled liver microsomes, pH 7.4; for remaining at 1 h, 1 µM: male, beagle, Dog liver microsomes, without NADPH, 60 min, read-out: Stability minus NADPH % Remaining @ 60 min; for half-life at 1 µM: Dog (beagle, male) liver microsomes
Description: (§1) Assays were conducted in 96-deep well polypropylene plates. In duplicate, test compounds (1 µM) were incubated in 0.5 mL of 100 mM potassium phosphate buffer (pH 7.4), with 0.5 mg/ml pooled liver microsomes (Life Technologies: CD-1 male mice # MSMCPL; SD male rat # RTMCPL; mixed gender human # HMMCPL. […] At five time points, 75 µL of reaction mixtures were transferred on ice to a 96-shallow well stop plate containing 225 µL acetonitrile with 0.1 µM propafenone. […] Standard curves for test compounds were generated using 5 concentrations (in duplicate) that were processed as above but with no incubation time. Stop plates were centrifuged at 2000xg for 10 min in a Sorvall ST 16 centrifuge, and 170 µL of the supernatants transferred to a Waters® Aquity UPLC (Ultra Performance Liquid Chromatography) 700 µL 96-well sample plate with cap mat. A Waters® Aquity UPLC BEH C18 1.7 µM, 2.1 × 50 mm column, at 40 °C, was used to fractionate 5 µL samples, using a 3 min linear 5 to 95% acetonitrile gradient in 0.1% formic acid with a 0.75 mL/min flow rate. In tandem with UPLC, compound concentrations were analyzed using a Waters® TQ MS mass spectrometer in electrospray-positive mode (source temperature 150 °C; desolvation temperature 450 °C; desolvation flow rate of 900 L/hr). Cone voltages, collision energies, and quantitation were optimized and determined using Waters® QuanOptimize software, with propafenone as an internal standard. MC180379:CV 34; CE 34; mrm 359.15 > 114.91; MC180390 CV 34; CE 28; mrm 359.15 > 114.92. GraphPad® Prism v 5.04 was used for nonlinear fitting of time course data to generate t1/2 and CLint (intrinsic clearance) values.

[5] = Liver microsome stability assay; type: in vitro ADME; conditions: pooled liver microsomes, pH 7.4, Cynomologous Monkey liver microsomes; for half-life at 1 µM: cynomolgus monkey; for remaining at 1 h, 1 µM: without NADPH, 60 min, read-out: Stability minus NADPH % Remaining @ 60 min
[6] = Liver microsome stability assay; type: in vitro ADME, human; conditions: both sexes, pooled liver microsomes, pH 7.4; for half-life at 1 µM: Human (mixed gender) liver microsomes; for remaining at 1 h, 1 µM: Human liver microsomes, without NADPH, 60 min, read-out: Stability minus NADPH % Remaining @ 60 min
Description: as §1

[7] = HT29 model, 20 mg/kg i.p. q.o.d.
[8] = SW48 model, 20 mg/kg i.p. q.o.d.

SMILES	half-life [1] [min]	absolute lymphocyte and monocyte counts [2, 7]	platelet counts [2, 7]	platelet counts [2, 8]	tolerability; neutrophil, lymphocyte, monocyte counts [2, 8]	body weights ([2]; SW48 model, NSG mice, Fig. S4E)	bone marrow suppression ([2]; in vivo, from lymphocyte, monocyte and platelet counts)	tumor burden, as measured by luciferase intensities [3]	survival [3]	remaining at 1 h, 1 µM [4] [%]	half-life at 1 µM [4] [min]	half-life at 1 µM [5] [min]	remaining at 1 h, 1 µM [5] [%]	half-life at 1 µM [6] [min]	remaining at 1 h, 1 µM [6] [%]	body weights ([2]; CT26.CL25 immunocompetent mice, after CD8 depletion, Fig. S5B)	body weights ([2]; CT26.CL25 immunocompetent mouse model, Fig. S5A)	body weights ([2]; SW48 model, NSG mice, Fig. S4C)
Nc1nc(N[C@H]2C[C@@H]3CC[C@H]2C3)sc1C(=O)c1ccccc1[N+](=O)[O-] [MC180380]	11.7	higher absolute lymphocyte and monocyte counts than MC180379-treated mice	higher platelet counts than those treated with MC180379	slightly higher platelet counts than MC180379	well-tolerated	did not affect NSG mouse body weights	less bone marrow-suppressive (and thus less toxic) than MC180379	lower	significantly extended survival; also recorded: better survival	88	52.5	1.5	51	21.1	88	–	–	–
Nc1nc(N[C@@H]2C[C@H]3CC[C@@H]2C3)sc1C(=O)c1ccccc1[N+](=O)[O-] [MC180379]	4.1	–	–	–	well-tolerated	–	–	–	–	88	36.2	0.8	73	12.2	86	–	–	–
Nc1nc(N[C@H]2C[C@@H]3CC[C@H]2C3)sc1C(=O)c1ccccc1[N+](=O)[O-] (relative stereo) [MC180295]	–	–	–	–	–	–	–	–	significantly extended survival	–	–	–	–	–	–	neither MC180295 nor MC180295 + DAC treatment affected NSG mouse body weights, after CD8 depletion	neither MC180295 nor MC180295 + DAC treatment affected NSG mouse body weights	did not affect NSG mouse body weights
